{
  "source": "patent US8410309B2",
  "about": "“Phenoxy carboxylic acid compounds and compositions for delivering active agents” (Emisphere Technologies, Inc., priority 1999, dated 2013)",
  "key": {"[1]": {"experiment": "Salmon calcitonin (sCT) oral delivery, serum sCT by EIA", "settings": "rats, delivery agent compound dose 150 mg/kg, sCT dose 30 μg/kg", "method": "Oral dosing (PO) compositions of a delivery agent compound and salmon calcitonin (sCT) in deionized water were prepared as described in Table 2 below. […] Either the sodium salt of the compound was used or the free acid was converted to the sodium salt by stirring the resultant solution and adding one equivalent of sodium hydroxide (1.0 N) and diluting with water. The solution was vortexed, then heated (about 37° C.) and sonicated. The pH was adjusted to about 7 (about 6.5 to 8.5) with NaOH or HCl. 90 μg sCT from a sCT stock solution (2 mg/ml made by adding 10001 pH 4 phosphate buffer to sCT and allowing it to go into solution by sitting for about 10-20 minutes and periodically gently inverting) was added to the solution.\nThe typical dosing and sampling protocols were as follows. Male Sprague-Dawley rats weighing between 200-250 g were fasted for 24 hours and administered ketamine (44 mg/kg) and chlorpromazine (1.5 mg/kg) 15 minutes prior to dosing and again as needed to maintain anesthesia. A dosing group of five animals was administered one of the dosing solutions. For oral dosing, an 11 cm Rusch 8 French catheter was adapted to a 1 ml syringe with a pipette tip. The syringe was filled with dosing solution by drawing the solution through the catheter, which was then wiped dry. The catheter was placed down the esophagus leaving 1 cm of tubing past the incisors. Solution was administered by pressing the syringe plunger.\nBlood samples were collected serially from the tail artery, typically at time=0, 10, 20, 30, 60 and 90 minutes. […] Numbers were adjusted according to baseline values obtained at time=0. The results from the animals in each dosing group were averaged for each time point."}, "[2]": {"experiment": "Insulin pulmonary delivery, serum insulin by ELISA, ratio to insulin-alone control", "type": "in vivo, Sprague-Dawley rats", "settings": "rats", "description": "Dosing compositions of delivery agent compound and human insulin in water were prepared. Typically, to 1.5 mg of delivery agent compound was added deionized water to bring the volume to 1.0 ml, and the solution was vortexed. […] The pH was adjusted to between about 7.0 to 8.5 with NaOH or HCl. […] The final delivery agent compound dose, insulin dose and volume dose amounts are listed below in Table 9.\nThe typical dosing and sampling protocols were as follows. […] A control group of five animals was dosed insulin alone. A tracheal instillator for rodents, equipped with light (available from Penn Century, Inc., Pittsburgh, Pa.) was filled with dosing solution and inserted down the throat until the needle went into the trachea (confirmed visually). The dosing solution was administered by pressing the plunger.\nBlood samples from each animal were collected serially from the tail artery, typically at 5, 15, 30, 60 and 120 minutes after dosing. […] The ratio of the area under the curve (AUC) for the test group versus that of the control group is reported below. The ratio of the maximum serum insulin concentration (Cmax) for the test group versus that of the control group is also reported below."}, "[3]": {"experiment": "Insulin oral delivery, serum human insulin by ELISA", "settings": "rats", "description": "Oral dosing (PO) compositions of delivery agent compound and human zinc insulin (minimum 26 IU/mg available from Calbiochem—Novabiochem Corp, La Jolla, Calif.) were prepared in deionized water. […] The pH was adjusted to about 7 to 8.5 with NaOH or HCl. […] The final delivery agent compound dose, insulin dose and dose volume amounts are listed below in Table 8.\n(§1) The typical dosing and sampling protocols were as follows.\nSerum insulin levels were determined with an Insulin ELISA Test Kit (Kit # DSL-10-1600 from Diagnostic Systems Laboratories, Inc., Webster, Tex.), modifying the standard protocol in order to optimize the sensitivity and linear range of the standard curve for the volumes and concentrations of the samples used in the present protocol. […] The five values for each time point were averaged and the results plotted as serum insulin concentration versus time."}, "[4]": {"experiment": "Daptomycin oral delivery, plasma daptomycin by HPLC", "type": "in vivo, Sprague-Dawley rats", "settings": "rats, delivery agent compound dose 200 mg/kg, daptomycin dose 50 mg/kg, volume dose 1 mL/kg", "description": "Dosing solutions containing a delivery agent compound and daptomycin (Cubist Pharmaceuticals, Cambridge, Mass.) were prepared in 0.9% normal saline. […] This mixture was vortexed and placed in a sonicator (about 37° C.). The pH was adjusted to about 7.0-7.5 with aqueous HCl or NaOH. […] The mixture was vortexed to produce a uniform solution, also using sonication if necessary. The delivery agent compound solution was mixed with daptomycin from a stock solution (200 mg daptomycin/mL in 0.9% normal saline and the pH adjusted, if necessary, to between 6.0-7.0 with NaOH or HCl). The stock solution was stored frozen (−20° C.) wrapped in foil, then thawed and warmed gradually to about 25° C. before using. The delivery agent-daptomycin mixture was vortexed at low speed to produce a uniform solution. The pH was adjusted to about 7.0-7.5 with aqueous NaOH. The solution was then diluted with 0.9% normal saline to the desired volume (usually 2.0 ml) and concentration and stored wrapped in foil before use.\nas §1\nHeparinized rat blood samples were collected via the ventral tail artery, typically at 0.25, 0.5, 0.75, 1.0, 2.0, and 4.0 hours after dosing, and stored on ice. Blood samples were then spun (centrifuged) at 11,500 rpm for 4 minutes at 4° C. to obtain the plasma (supernatant), which was stored at −70° C. The plasma daptomycin concentrations were measured by isocratic reversed phase HPLC, keeping samples at 4° C. during analysis. Blank plasma studies show baseline values of zero.\nDaptomycin blood concentrations results from the individual animals in each dosage group were averaged for each time point."}, "[5]": {"experiment": "Recombinant human growth hormone (rhGH) oral delivery, serum rhGH by immunoassay", "settings": "oral gavage, rats, delivery agent compound 200 mg/kg, rhGH 3 mg/kg"}, "[6]": {"experiment": "Interferon oral delivery, serum IFN by immunoassay", "type": "in vivo, Sprague-Dawley rats", "settings": "rats, delivery agent compound 200 mg/kg, IFN 1 mg/kg, 1 ml/kg", "description": "Dosing solutions of delivery agent compound and human interferon (IFN) were prepared in deionized water. […] This mixture was vortexed and placed in a sonicator (about 37° C.). The pH was adjusted to about 7.0 to 8.5 with aqueous NaOH. The mixture was vortexed to produce a uniform suspension or solution, also using sonication and heat if necessary.\nas §1\nSerum IFN concentrations were quantified using Cytoscreen Immunoassay Kit for human IFN-alpha (catalog # KHC4012 from Biosource International, Camarillo, Calif.). Previous studies indicated baseline values of about zero."}, "[7]": {"settings": "pulmonary, volume 0.4 ml/kg, delivery agent compound 0.03 mg/kg, insulin 0.3 mg/kg (so in the source)"}},
  "note": "“And” between values parts separate entries of the source, which are not always exact repeats. Equal values may be shown once.",
  "data": [
    {"smiles": "O=C(O)CCCCCOc1cccc(O)c1", "note": "[Compound 45]", "values": [
      {"measurement": "Mean Peak Serum sCT (pg/ml ± SD) (SE)", "setting": "[1]; dose volume 1 (ml), 150 mg/kg", "value": "125 ± 187 pg/mL and 172 ± 158 pg/mL"},
      {"measurement": "Mean Ratio of AUC for insulin + compound versus AUC for insulin alone", "setting": "[2]; [7]", "value": 1.01},
      {"measurement": "Mean Peak Serum [INS] ± SD", "setting": "[3]; delivery agent compound 200 mg/kg, insulin 0.5 mg/kg, 1 ml/kg", "value": "70.32 ± 149.1", "unit": "μU/ml"}
    ]},
    {"smiles": "O=C(O)CCCCCCCCCOc1ccc(O)cc1", "note": "[Compound 48]", "values": [
      {"measurement": "Mean Peak Serum sCT (pg/ml ± SD) (SE)", "setting": "[1]; dose volume 3 (ml)", "value": "95 ± 156", "unit": "pg/mL"},
      {"measurement": "Mean Peak Serum sCT (pg/ml ± SD) (SE)", "setting": "[1]; dose volume 4 (ml)", "value": "35 ± 49", "unit": "pg/mL"},
      {"measurement": "Cmax (serum insulin)", "setting": "[2]; [7]", "value": "135.56 ± 80.96", "unit": "μU/ml"},
      {"measurement": "Mean Ratio of AUC for insulin + compound versus AUC for insulin alone", "setting": "[2]; [7]", "value": 1.30}
    ]},
    {"smiles": "O=C(O)CCCCCOc1ccc(O)cc1", "note": "[Compound 49]", "values": [
      {"measurement": "Mean Ratio of AUC for insulin + compound versus AUC for insulin alone", "setting": "[2]; [7]", "value": 0.54},
      {"measurement": "Mean Peak Serum [INS] ± SD", "setting": "[3]; delivery agent compound 100 mg/kg, insulin 3 mg/kg, 0.5 ml/kg", "value": "335.7 ± 227.05", "unit": "μU/ml"}
    ]},
    {"smiles": "CC(=O)c1cc(O)ccc1OCCCCCCCC(=O)O", "note": "[Compound 57, (4-hydroxy-2-acetylphenyl)-8-oxyoctanoic acid]", "values": [
      {"measurement": "Mean Peak Serum [INS] ± SD", "setting": "[3]; delivery agent compound 200 mg/kg, insulin 3 mg/kg, 1 ml/kg", "value": "3322 ± 2721", "unit": "μU/ml"},
      {"measurement": "Mean plasma Cmax [daptomycin] ± SD", "setting": "[4]", "value": "8590 ± 4210", "unit": "ng/mL"}
    ]},
    {"smiles": "CCC(=O)c1ccc(OCCCCCCCC(=O)O)cc1", "note": "[Compound 63]", "values": [
      {"measurement": "Cmax (serum insulin)", "setting": "[2]; Table 9 pulmonary delivery, volume 1 ml/kg, delivery agent compound 3 mg/kg, insulin 100 mg/kg (so in the source)", "value": 7.843, "unit": "μU/ml"},
      {"measurement": "Mean Peak Serum [INS] ± SD", "setting": "[3]; delivery agent compound 100 mg/kg, insulin 3 mg/kg, 1 ml/kg", "value": "7.843 ± 8.527", "unit": "μU/ml"}
    ]},
    {"smiles": "O=C(O)c1ccc(COc2ccc(O)cc2)cc1", "note": "[Compound 67]", "values": [
      {"measurement": "Mean Peak Serum sCT (pg/ml ± SD) (SE)", "setting": "[1]; dose volume 1 (ml), 150 mg/kg", "value": "142 ± 142 pg/mL and 256 ± 158 pg/mL"},
      {"measurement": "Mean Peak Serum sCT (pg/ml ± SD) (SE)", "setting": "[1]; dose volume 2 (ml)", "value": "681 ± 419", "unit": "pg/mL"},
      {"measurement": "Cmax (serum insulin)", "setting": "[2]; pulmonary, volume 0.4 ml/kg, delivery agent compound 0.03 mg/kg, insulin 0.06 mg/kg (so in the source)", "value": "82.23 ± 47.16 μU/ml and 70.85 ± 36.24 μU/ml"},
      {"measurement": "Cmax (serum insulin)", "setting": "[2]; pulmonary, volume 0.4 ml/kg, delivery agent compound 0.03 mg/kg, insulin 0.15 mg/kg (so in the source)", "value": "84.40 ± 15.06 μU/ml and 91.20 ± 37.30 μU/ml"},
      {"measurement": "Cmax (serum insulin)", "setting": "[2]; [7]", "value": "66.04 ± 47.42 μU/ml and 92.14 ± 36.17 μU/ml and 115.04 ± 68.23 μU/ml"},
      {"measurement": "Mean Peak Serum [rhGH]", "setting": "[5]; volume dose 1 ml", "value": "15 ng/mL and 14.7 ng/mL"},
      {"measurement": "Mean Peak Serum [IFN] ± SD", "setting": "[6]", "value": "3.4451 ± 4.5", "unit": "ng/mL"}
    ]},
    {"smiles": "O=C(O)CCCCCCCOc1ccc(F)cc1F", "note": "[Compound 71]", "values": [
      {"measurement": "Mean Peak Serum sCT (pg/ml ± SD) (SE)", "setting": "[1]; dose volume 2 (ml)", "value": "302 ± 246", "unit": "pg/mL"},
      {"measurement": "Cmax (serum insulin)", "setting": "[2]; [7]", "value": "57.82 ± 35.28", "unit": "μU/ml"},
      {"measurement": "Mean Peak Serum [rhGH]", "setting": "[5]; volume dose 3 ml", "value": 5.94, "unit": "ng/mL"}
    ]},
    {"smiles": "O=C(O)c1ccc(COc2ccccc2Cl)cc1", "note": "[Compound 78]", "values": [
      {"measurement": "Cmax (serum insulin)", "setting": "[2]; [7]", "value": "80.56 ± 30.51", "unit": "μU/ml"},
      {"measurement": "Mean Peak Serum [rhGH]", "setting": "[5]; volume dose 1 ml", "value": 0, "unit": "ng/mL"}
    ]}
  ]
}
